Measured values as given in article PMC12903857.

Legend:
14-3-3σ/C-RAF259 [1] = biological target: T1, 14-3-3σ/C-RAF259 (Homo sapiens, UniProt P31947); test: Fluorescence anisotropy (FA) compound titration; type: binding; settings: 10 nM C-RAF259-FAM 10-mer, 5 μΜ 14-3-3σ, overnight; read-out: Compound titrations EC50 value C-RAF259
Description: (§1) In analogy to our previous work, two orthogonal assays were used for screening (Figure S2). […] Dose responses of compounds were performed in the absence and presence of the C-RAF259 phospho-peptide to distinguish between neutral binders and cooperative molecular glues. The experiment was performed as a time course, with measurements every 8 h, after an 1 h incubation. Additionally, the compounds were tested in a fluorescence anisotropy (FA) assay in the presence of the 5-carboxyfluorescein-(FAM)-labeled C-RAF259 peptide. […] The full dose–response data for all compounds are available in the SI (Tables S2–S5, Figures S5–S8, Figures S15–S18, Figures S25–S32, Figures S37–S39). The dose–response data from both assays were also visually compared in the form of bar graphs. […] For FA experiments, the EC50 values from the overnight measurement were calculated and plotted as bar graphs showing the […] log EC50 value (pEC50). Compounds acting as MGs were expected to show increases in both types of bar graphs.
(§2) transferred in the assay plates.
(§3) The reacton mixtures were incubated
(§4) dispensed in the assay plates.
(§5) incubaton at room temperature .

14-3-3σ/C-RAF259 [2] = biological target: T1, 14-3-3σ/C-RAF259; test: FA protein titration, C-RAF259 peptide; settings: appKd DMSO / appKd compound
14-3-3σ = biological target: T2, 14-3-3σ (Homo sapiens, UniProt P31947); test: Intact mass spectrometry assay, apo (no peptide); type: binding; parameters: full-length for mass spectrometry and fluorescence anisotropy assays; made in house; host or cells: E. coli Rosetta 2(DE3)pLysS, pPROEX HTb vector; settings: 1 μM compound, 100 nM 14-3-3σ
T2 sequence (P31947 1-248): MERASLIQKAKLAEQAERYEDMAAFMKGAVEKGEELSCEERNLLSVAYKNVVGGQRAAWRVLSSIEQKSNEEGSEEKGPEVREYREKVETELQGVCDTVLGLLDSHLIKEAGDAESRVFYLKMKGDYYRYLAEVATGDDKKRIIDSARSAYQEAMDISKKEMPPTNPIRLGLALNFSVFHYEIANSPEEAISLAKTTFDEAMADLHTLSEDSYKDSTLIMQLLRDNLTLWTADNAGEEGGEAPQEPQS
Description: as §1, §2, §3, §4, §5

14-3-3σ/C-RAF259 [3] = biological target: T1, 14-3-3σ/C-RAF259; test: Intact mass spectrometry assay with C-RAF259 phospho-peptide; type: binding; parameters: full-length for mass spectrometry and fluorescence anisotropy assays; made in house; host or cells: E. coli Rosetta 2(DE3)pLysS (14-3-3σ); peptides from Elim Biopharmaceuticals; settings: 1 μM compound, 100 nM 14-3-3σ, 18 µM peptide
Description: as §1, §2, §3, §4, §5

14-3-3σ/C-RAF = 14-3-3σ/C-RAF (Homo sapiens, UniProt P31947); test: cell-based
Sequence of 14-3-3σ/C-RAF (P04049 whole entry partner, one chain of several): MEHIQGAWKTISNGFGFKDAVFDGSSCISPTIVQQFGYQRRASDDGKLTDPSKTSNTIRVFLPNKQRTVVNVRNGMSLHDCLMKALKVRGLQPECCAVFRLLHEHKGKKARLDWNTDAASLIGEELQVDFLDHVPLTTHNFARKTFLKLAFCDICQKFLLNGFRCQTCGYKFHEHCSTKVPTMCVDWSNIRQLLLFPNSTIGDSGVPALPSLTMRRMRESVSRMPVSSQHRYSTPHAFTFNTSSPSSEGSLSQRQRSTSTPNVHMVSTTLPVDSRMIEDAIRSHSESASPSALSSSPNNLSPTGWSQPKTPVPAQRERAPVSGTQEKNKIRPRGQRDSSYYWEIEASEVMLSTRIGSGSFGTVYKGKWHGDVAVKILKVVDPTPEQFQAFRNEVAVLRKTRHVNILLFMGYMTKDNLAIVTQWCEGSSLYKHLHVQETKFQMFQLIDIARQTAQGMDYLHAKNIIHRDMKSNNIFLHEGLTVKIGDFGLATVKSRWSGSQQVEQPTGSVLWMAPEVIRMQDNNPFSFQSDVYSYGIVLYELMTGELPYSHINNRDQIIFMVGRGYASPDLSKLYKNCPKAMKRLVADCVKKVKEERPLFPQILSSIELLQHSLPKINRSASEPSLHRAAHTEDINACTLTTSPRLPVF

| Compound | EC50 (14-3-3σ/C-RAF259 [1]) [µM] | Fold stabilization (100 µM compound), C-RAF259 (10mer) (14-3-3σ/C-RAF259 [2]) [fold] | % bound, APO, 1h (14-3-3σ) [%] | % bound, APO, 8h (14-3-3σ) [%] | % bound, APO, 16h (14-3-3σ) [%] | % bound, APO, 24h (14-3-3σ) [%] | % bound, C-RAF259 (11mer), 1h (14-3-3σ/C-RAF259 [3]) [%] | % bound, C-RAF259 (11mer), 8h (14-3-3σ/C-RAF259 [3]) [%] | % bound, C-RAF259 (11mer), 16h (14-3-3σ/C-RAF259 [3]) [%] | % bound, C-RAF259 (11mer), 24h (14-3-3σ/C-RAF259 [3]) [%] | EC50 (14-3-3σ/C-RAF) [µM] |
| --- | --- | --- | --- | --- | --- | --- | --- | --- | --- | --- | --- |
| COc1ccc(S(=O)(=O)N2CCC(CNC(=O)CCl)CC2)cc1F [Compound 33] | 9 ± 1 | 13 | 0 | 0 | 0.9 | 0.9 | 7.7 | 18.5 | 31.8 | 50.3 |  |
| O=C(CCl)NCC1CCN(S(=O)(=O)c2ccc(C(F)(F)F)cc2)CC1 [Compound 18] | 17 ± 1 | 15 | 0 | 0.9 | 6.5 | 12.7 | 8.2 | 17.9 | 28.4 | 46.8 |  |
| O=C(CCl)NCC1CCN(S(=O)(=O)c2ccc(F)c(Cl)c2)CC1 [Compound 30] | 12 ± 2 | 3 | 1 | 2.5 | 6.5 | 22.5 | 11 | 24.8 | 41.8 | 60.3 |  |
| O=C(CCl)N1CC2(CC(NS(=O)(=O)c3ccc(Br)c(F)c3)C2)C1 [Compound 64] | 15 ± 2 | 2 | 9.9 | 27.2 | 47.2 | 65 | 27.5 | 53.6 | 79 | 80.8 |  |
| O=Cc1ccc(S(=O)(=O)N2CCC(CNC(=O)CCl)CC2)cc1 [Compound 21] | 5 ± 1 | 9 |  | 2.9 | 4.4 | 7.4 | 2.9 | 6.5 | 10.7 | 32.2 |  |
| O=C(CCl)NCC1CCN(S(=O)(=O)c2cc(F)c(Br)c(F)c2)CC1 [Compound 40] | 2 ± 1 | 13 | 0 | 0.5 | 1.5 | 4.7 | 35.9 | 60.5 | 78.9 | 93.9 |  |
| O=C(CCl)NCC1CCN(S(=O)(=O)c2ccc(Cl)c(F)c2)CC1 [Compound 29] | 1 ± 0.5 |  |  |  |  |  |  |  |  |  | 0.14 |
| O=C(CCl)NCC1CCN(S(=O)(=O)c2ccc(Br)cc2F)CC1 [Compound 36] | 25 ± 2 | 18 | 0 | 0.9 | 2.9 | 4.5 | 20.6 | 41.1 | 69.5 | 91.7 |  |
| O=C(CCl)N1CCC2(CCN(S(=O)(=O)c3ccc(Br)c(F)c3)C2)C1 (stereo not drawn) [Compound 86] | 1 ± 1 |  |  |  |  |  |  |  |  |  | 0.3 |
| O=C(CCl)N1CC2CC1CN2S(=O)(=O)c1ccc(Br)c(F)c1 (stereo not drawn) [Compound 58] | 12 ± 1 | 6 | 4.7 | 17.3 | 28 | 51.8 | 16.5 | 45.2 | 71.2 | 80.5 |  |
| O=C(CCl)NCC1CCN(S(=O)(=O)c2ccc(Cl)cc2)CC1 [Compound 12] | 3 ± 1 | 22 | 1 | 1.5 | 2.9 | 4.3 | 12.1 | 32.8 | 47.8 | 64.4 |  |
| O=C(CCl)NCC1CCN(S(=O)(=O)c2ccc(F)cc2)CC1 [Compound 11] | 17 ± 3 | 4 | 0 | 1.5 | 4.7 | 6.9 | 6.9 | 15 | 26 | 50.3 |  |
| O=C(CCl)NCC1CCN(S(=O)(=O)c2cc(F)c(Br)cc2F)CC1 [Compound 39] | 17 ± 3 | 7 | 0 | 1.9 | 3.8 | 3.8 | 39.3 | 64.6 | 78.1 | 96.7 |  |
| O=C(CCl)NCC1CCN(S(=O)(=O)c2ccc(Cl)c(C(F)(F)F)c2)CC1 [Compound 31] | 8 ± 1 | 2 | 0.9 | 1.9 | 2.5 | 3.8 |  | 38.1 | 59.1 | 81.4 |  |
| CC1(CNC(=O)CCl)CCN(S(=O)(=O)c2ccc(Br)c(F)c2)CC1 [Compound 46] | 11 ± 1 | 49 | 0.5 | 1.9 | 4.7 | 8.2 | 25.8 | 39.4 | 49 | 84 |  |
